According to ChEMBL document CHEMBL1909046, “DrugMatrix in vitro pharmacology data”:

Columns and labels:
[1] = target: T1, Neuropeptide Y receptor type 2 (Homo sapiens, UniProt P49146); type: cell membranes, KAN-TS, Membrane; settings: kan-ts; note: in other assays of this panel Not Active means under 50% inhibition at 10 µM
T1 sequence (P49146 whole entry): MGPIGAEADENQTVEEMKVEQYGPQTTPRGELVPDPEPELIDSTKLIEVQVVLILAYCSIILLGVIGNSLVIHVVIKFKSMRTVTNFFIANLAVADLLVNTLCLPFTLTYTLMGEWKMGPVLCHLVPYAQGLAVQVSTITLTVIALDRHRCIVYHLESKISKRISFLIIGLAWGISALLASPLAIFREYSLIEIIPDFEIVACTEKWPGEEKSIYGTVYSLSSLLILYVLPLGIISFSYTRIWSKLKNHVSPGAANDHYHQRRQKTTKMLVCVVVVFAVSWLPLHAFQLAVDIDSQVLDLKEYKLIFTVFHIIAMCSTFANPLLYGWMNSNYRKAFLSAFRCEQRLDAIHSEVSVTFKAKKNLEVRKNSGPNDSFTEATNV

[2] = DRUGMATRIX: Calcium Channel Type L, Benzothiazepine radioligand binding (ligand: [3H] Diltiazem); type: cell membranes, Rattus norvegicus, Wistar, Brain, Membrane; settings: Not Active = under 50% inhibition at 10 µM
[3] = DRUGMATRIX: Platelet-Derived Growth Factor (PDGF) radioligand binding (ligand: [125I] PDGF); type: cell-based; settings: nih3t3; Not Active = under 50% inhibition at 10 µM
[4] = DRUGMATRIX: Imidazoline I2, Central radioligand binding (ligand: [3H] Idazoxan); type: cell membranes, Rattus norvegicus, Wistar, Cerebral cortex, Membrane; settings: Not Active = under 50% inhibition at 10 µM
[5] = DRUGMATRIX: Phorbol Ester radioligand binding (ligand: [3H] PDBu); type: cell membranes, Mus musculus, ICR, Brain, Membrane; settings: Not Active = under 50% inhibition at 10 µM
[6] = target: Matrix metalloproteinase-9 (Homo sapiens, UniProt P14780); experiment: biochemical; type: cell-based;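 note: inhibition of isolated MMP-9 enzyme activity toward a synthetic peptide substrate, from the DrugMatrix protease screening panel; in other assays of this panel Not Active means under 50% inhibition at 10 µM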
Chain of Matrix metalloproteinase-9 (P14780 whole entry): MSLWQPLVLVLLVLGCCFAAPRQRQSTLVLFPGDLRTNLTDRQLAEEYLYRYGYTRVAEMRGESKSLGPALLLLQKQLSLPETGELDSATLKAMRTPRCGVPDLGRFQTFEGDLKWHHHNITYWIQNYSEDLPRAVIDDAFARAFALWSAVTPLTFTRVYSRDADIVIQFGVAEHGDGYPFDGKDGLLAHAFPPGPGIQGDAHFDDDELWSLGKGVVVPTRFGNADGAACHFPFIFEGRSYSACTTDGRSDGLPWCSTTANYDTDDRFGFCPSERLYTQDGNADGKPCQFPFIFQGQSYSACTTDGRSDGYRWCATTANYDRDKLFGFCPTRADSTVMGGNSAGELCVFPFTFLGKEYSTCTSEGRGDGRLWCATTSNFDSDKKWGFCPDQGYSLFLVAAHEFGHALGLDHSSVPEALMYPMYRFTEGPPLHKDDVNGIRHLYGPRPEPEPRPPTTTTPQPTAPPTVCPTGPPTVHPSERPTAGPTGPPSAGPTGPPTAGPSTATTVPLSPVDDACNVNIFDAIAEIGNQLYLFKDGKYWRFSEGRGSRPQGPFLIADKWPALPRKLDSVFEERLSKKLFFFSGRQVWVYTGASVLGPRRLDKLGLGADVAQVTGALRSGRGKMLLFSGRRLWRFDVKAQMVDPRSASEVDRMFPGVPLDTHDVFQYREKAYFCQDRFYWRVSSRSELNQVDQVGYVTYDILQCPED

Compound	IC50 [1]	IC50 [2]	Ki [2]	IC50 [3]	Ki [3]	IC50 [4]	Ki [4]	IC50 [5]	Ki [5]	IC50 [6]	IC50 ([2]; read-out: IC50)	Ki ([2]; read-out: Ki)
COc1ccc2c3c1O[C@H]1C[C@@H](O)C=C[C@@]31CCN(C)C2 [GALANTAMINE]	Not Active	Not Active	Not Active	Not Active	Not Active	Not Active	Not Active	Not Active	Not Active	Not Active	–	–
O=C(O)CCNC(=O)c1ccccc1 [BETAMIPRON]	Not Active	Not Active	Not Active	Not Active	Not Active	Not Active	Not Active	Not Active	Not Active	Not Active	–	–
C#C[C@]1(OC(C)=O)CC[C@H]2[C@@H]3CCC4=C[C@@H](OC(C)=O)CC[C@@H]4[C@H]3CC[C@@]21C [ETHYNODIOL DIACETATE]	Not Active	Not Active	Not Active	Not Active	Not Active	Not Active	Not Active	Not Active	Not Active	Not Active	–	–
CN1[C@@H]2CC[C@H]1C[C@@H](OC(=O)C(CO)c1ccccc1)C2 (stereo not given in full) [ATROPINE]	Not Active	Not Active	Not Active	Not Active	Not Active	Not Active	Not Active	Not Active	Not Active	Not Active	–	–
Oc1cccc(O)c1O [PYROGALLOL]	Not Active	Not Active	Not Active	Not Active	Not Active	Not Active	Not Active	Not Active	Not Active	Not Active	–	–
O=C/C=C/c1ccccc1	Not Active	Not Active	Not Active	Not Active	Not Active	Not Active	Not Active	Not Active	Not Active	Not Active	–	–
CN/C(=N\CCSCc1nc[nH]c1C)NC#N [CIMETIDINE]	Not Active	Not Active	Not Active	Not Active	Not Active	Not Active	Not Active	Not Active	Not Active	Not Active	–	–
C[n+]1ccc(-c2cc[n+](C)cc2)cc1.[Cl-].[Cl-] [PARAQUAT DICHLORIDE]	Not Active	Not Active	Not Active	Not Active	Not Active	Not Active	Not Active	Not Active	Not Active	Not Active	–	–
CCCN(CCC)S(=O)(=O)c1ccc(C(=O)O)cc1 [PROBENECID]	Not Active	Not Active	Not Active	Not Active	Not Active	Not Active	Not Active	Not Active	Not Active	Not Active	–	–
C#CC1(O)CC[C@H]2[C@@H]3CCC4=CC(=O)CC[C@@H]4[C@H]3CC[C@@]21CC (stereo not given in full) [NORGESTREL]	Not Active	Not Active	Not Active	Not Active	Not Active	Not Active	Not Active	Not Active	Not Active	Not Active	–	–
CC[C@H]1CN2CCc3cc(OC)c(OC)cc3[C@@H]2C[C@@H]1C[C@H]1NCCc2cc(OC)c(OC)cc21 [EMETINE]	Not Active	–	–	Not Active	Not Active	Not Active	Not Active	Not Active	Not Active	Not Active	2.36 µM	2.09 µM
